“Also recorded” adds a separate entry of the source. Where two headings read alike, the source gives them in different places.
How the values were obtained:
protein kinase C [1] = type: binding; conditions: for Ki: read-out: KI, binding affinity to protein kinase C
polymodal nociceptors [2] = tested on: polymodal nociceptors; parameters: species or system Sprague-Dawley rats; conditions: rat, in vivo
polymodal nociceptors [3] = assay: animal or person; type: in vivo, Sprague-Dawley rats
polymodal nociceptors [4] = assay: animal or person; type: in vivo, Sprague-Dawley rats; remark: listed apart in the source
mouse ear = conditions: in vivo; cited from earlier work
polymodal nociceptors [5] = type: in vivo, Sprague-Dawley rats; conditions: for Neurogenic inflammation, Evan's blue: 30 min; for Evan's blue extravasation / less potent than RTX for induction of Evan's blue extravasation: rat, in vivo
[6] = tested on: polymodal nociceptor neurons; conditions: for RTX-like effects: in vivo
protein kinase C [7] = conditions: read-out: KI, binding affinity to protein kinase C; cited from earlier work
[8] = parameters: species or system rats; conditions: rat, in vivo
polymodal nociceptors [9] = tested on: polymodal nociceptors; parameters: species or system Sprague-Dawley rats; conditions: rat, in vivo; remark: listed apart in the source
[10] = mouse, in vivo; cited from earlier work
[11] = tested on: polymodal nociceptor neurons; conditions: in vivo; cited from earlier work
[12] = rat, in vivo; cited from earlier work
polymodal nociceptors [13] = conditions: rat, in vivo; cited from earlier work
[14] = Rattus norvegicus, sc, 6 h, read-out: Systemic desensitization against neurogenic pain, inhibition
[15] = Rattus norvegicus, sc, 6 hr, read-out: Systemic desensitization against neurogenic inflammation, inhibition

C=C(C)[C@]12C[C@@H](C)[C@@]34O[C@](Cc5ccccc5)(O[C@@H]1[C@@H]3C=C(CO)C[C@]1(O)C(=O)C(C)=C[C@@H]41)O2 [ROA, Resiniferonol 9,13,14Orthophenylacetate]
less active than dPP or mezerein in competing for phorbol ester binding sites on protein kinase C (protein kinase C [1]): 100 fold
Ki (protein kinase C [1]): 36 ± 9 nM
RPP (Relative Pain-Producing Potency) (polymodal nociceptors [2]): 1
less potent than RTX for RTX-characteristic biological responses (polymodal nociceptors [2]): at least 1000 fold
inhibition at 0.3 mg/kg (polymodal nociceptors [3]; [14]): 0%
inhibition at 0.3 mg/kg (polymodal nociceptors [4]; [15]): 0%
potency in ear reddening assay, less than dPP (mouse ear): 25 fold
potency in ear reddening assay, less than mezerein (mouse ear): 33 fold
Neurogenic inflammation, Evan's blue (polymodal nociceptors [5]): 0
RTX-like effects [6]: totally inactive

C=C(C)[C@@]12O[C@@]3(c4ccccc4)O[C@@H]1[C@@H]1[C@@H]4O[C@]4(CO)[C@@H](O)[C@]4(O)C(=O)C(C)=C[C@H]4[C@@]1(O3)[C@H](C)[C@H]2OC(=O)/C=C/C=C/c1ccccc1 [Mez, Mezerein]
RPP (Relative Pain-Producing Potency) (polymodal nociceptors [2]): 0.1
inhibition at 0.3 mg/kg (polymodal nociceptors [4]; [15]): 0%
Ki (protein kinase C [7]): 0.58 ± 0.06 nM
Neurogenic inflammation, Evan's blue (polymodal nociceptors [5]): 0
Evan's blue extravasation (polymodal nociceptors [5]): slight extravasation
RTX-like effects [6]: inactive

COc1cc(CC(=O)OCC2=C[C@H]3[C@@H]4C(C)(C)[C@]4(OC(=O)Cc4ccccc4)C[C@@H](C)[C@]3(O)[C@@H]3C=C(C)C(=O)[C@@]3(O)C2)ccc1O [dPP-HV, 20-Homovanillic-12-deoxyphorbol 13-phenylacetate]
induction of hypothermia [8]: totally inactive
less potent than RTX for induction of hypothermia [8]: at least 4 orders of magnitude
Local desensitization against neurogenic pain, inhibition (polymodal nociceptors [9]): 78%
potency relative to RTX for desensitization of pain upon local administration (polymodal nociceptors [9]): ≤ 10 fold
Relative Affinity (protein kinase C [1]): 130
reduction of protein kinase C binding affinity by the 20-homovanillate ester (protein kinase C [1]): 130 fold
Ki (protein kinase C [1]): 82 ± 13 nM
RPP (Relative Pain-Producing Potency) (polymodal nociceptors [2]): 1000
activity in eye-wiping assay / pain induction (polymodal nociceptors [2]): comparable to RTX; also recorded: comparable activity
delay of eye-wiping movements after instillation (polymodal nociceptors [2]): 20 to 30 s
inhibition at 0.3 mg/kg (polymodal nociceptors [3]; [14]): 19%
desensitization to chemically-induced pain and to neurogenic inflammation (polymodal nociceptors [3]; rat, in vivo): able to desensitize
relative potency for systemic desensitization to chemically induced pain, less than RTX (polymodal nociceptors [3]; rat, in vivo): approximately 3000 fold
inhibition at 0.3 mg/kg (polymodal nociceptors [4]; [15]): 26%
inhibition at 1 mg/kg (polymodal nociceptors [4]; [15]): 62%
relative potency for inhibiting xylene-induced Evan's blue extravasation, less than RTX (polymodal nociceptors [4]; rat, in vivo): 300 fold
Neurogenic inflammation, Evan's blue (polymodal nociceptors [5]): 0
Evan's blue extravasation (polymodal nociceptors [5]): No extravasation
less potent than RTX for induction of Evan's blue extravasation (polymodal nociceptors [5]): at least 30 fold
less potent than RTX in the other RTX responses / in vivo assays [6]: 2-4 orders of magnitude
RTX-like effects [6]: more active than capsaicin and less active than RTX

COc1cc(CNC(=O)CCCC/C=C/C(C)C)ccc1O [capsaicin]
body temperature in mice [10]: dramatic fall in body temperature

CC1=C[C@H]2[C@@]3(O)[C@H](C)C[C@]4(OC(=O)Cc5ccccc5)[C@H]([C@@H]3C=C(CO)C[C@]2(O)C1=O)C4(C)C [dPP, 12-deoxyphorbol 13-phenylacetate]
Ki (protein kinase C [1]): 0.64 ± 0.01 nM
RPP (Relative Pain-Producing Potency) (polymodal nociceptors [2]): 1
inhibition at 0.3 mg/kg (polymodal nociceptors [4]; [15]): 0%
Neurogenic inflammation, Evan's blue (polymodal nociceptors [5]): 0
Evan's blue extravasation (polymodal nociceptors [5]): slight extravasation
RTX-like effects [6]: inactive

C=C(C)[C@@]12O[C@@]3(c4ccccc4)O[C@@H]1[C@@H]1[C@@H]4O[C@]4(COC(=O)Cc4ccc(O)c(OC)c4)[C@@H](O)[C@]4(O)C(=O)C(C)=C[C@H]4[C@@]1(O3)[C@H](C)[C@H]2OC(=O)/C=C/C=C/c1ccccc1 [Mez-HV, Mezerein 20-homovanillate]
Relative Affinity (protein kinase C [1]): 690
reduction of protein kinase C binding affinity by the 20-homovanillate ester (protein kinase C [1]): 690 fold
Ki (protein kinase C [1]): 400 ± 110 nM
RPP (Relative Pain-Producing Potency) (polymodal nociceptors [2]): 0.1
activity in eye-wiping assay / pain induction (polymodal nociceptors [2]): very weak pungency; also recorded: very weak activity
potency in eye-wiping assay, less potent than RTX and dPP-HV (polymodal nociceptors [2]): approximately 4 orders of magnitude
inhibition at 0.3 mg/kg (polymodal nociceptors [3]; [14]): 0%
desensitization to chemically-induced pain and to neurogenic inflammation (polymodal nociceptors [3]; rat, in vivo): No activity; also recorded: inactive
inhibition at 0.3 mg/kg (polymodal nociceptors [4]; [15]): 0%
Neurogenic inflammation, Evan's blue (polymodal nociceptors [5]): 0
Evan's blue extravasation (polymodal nociceptors [5]): No extravasation
less potent than RTX for induction of Evan's blue extravasation (polymodal nociceptors [5]): at least 30 fold
RTX-like effects [6]: inactive

C=C(C)[C@]12C[C@@H](C)[C@@]34O[C@](Cc5ccccc5)(O[C@@H]1[C@@H]3C=C(COC(=O)Cc1ccc(O)c(OC)c1)C[C@]1(O)C(=O)C(C)=C[C@@H]41)O2 [RTX, Resiniferatoxin]
Local desensitization against neurogenic pain, inhibition (polymodal nociceptors [9]): 43%
body temperature in mice [10]: dramatic fall in body temperature
Relative Affinity (protein kinase C [1]): 11
reduction of protein kinase C binding affinity by the 20-homovanillate ester (protein kinase C [1]): 11 fold
Ki (protein kinase C [1]): 404 ± 63 nM
RPP (Relative Pain-Producing Potency) (polymodal nociceptors [2]): 1000
activity in eye-wiping assay / pain induction (polymodal nociceptors [2]): comparable activity
delay of eye-wiping movements after instillation (polymodal nociceptors [2]): 5 to 10 s
inhibition at 0.01 mg/kg (polymodal nociceptors [3]; [14]): 100%
inhibition at 0.3 mg/kg (polymodal nociceptors [4]; [15]): 100%
more potent than phorbol 12-myristate 13-acetate in mouse ear erythema assay (mouse ear): 1000 fold
more potent compared to capsaicin [11]: 3-4 orders of magnitude
Neurogenic inflammation, Evan's blue (polymodal nociceptors [5]): 91.6 ± 3.6
dose producing a substantial drop in body temperature [12]: 10^-7 g/kg
dose giving a detectable Evan's blue extravasation response (polymodal nociceptors [13]): 3×10^-6 g/paw

— patent publication US5021450A (priority 1989, dated 1991)
